Reference: US7932249B2, “Olanzapine pamoate dihydrate” (Eli Lilly and Company, priority 2005, dated 2011)

Legend:
Assay type in all cases: physicochemical
[1] = In vitro dissolution test at higher paddle speed (100 rpm); conditions: 100 rpm paddle speed, 0.05% CTAB pH 6.8 USP buffer, 37° C.
Protocol: Another dissolution experiment was performed in order to ensure that the media conditions used to generate the profiles in Table 4 were not solubility limiting. This experiment was performed using the same samples and media conditions but at a higher paddle speed to provide the data listed in Table 5.

[2] = Comparative in vitro dissolution test, 50 rpm paddle speed; conditions: for Average % Olanzapine Release (n = 3): USP Apparatus 2, 50 rpm, 0.05% CTAB pH 6.8 USP buffer, 37° C., 1000 mL
Protocol: In-vitro dissolution testing was performed to compare the olanzapine release rates for olanzapine pamoate monohydrate and the olanzapine pamoate dihydrate.

[3] = Solubility in aqueous solution (comparative statement)

Cc1cc2c(s1)Nc1ccccc1N=C2N1CCN(C)CC1.O=C(O)c1cc2ccccc2c(Cc2c(O)c(C(=O)O)cc3ccccc23)c1O [Olanzapine Pamoate Monohydrate, 2-methyl-4-(4-methyl-1-piperazinyl)-10H-thieno[2,3-b][1,5]benzodiazepine pamoate, reference compound]
% Olanzapine Release (n = 1) ([1]; 24 hrs): 99%
% Olanzapine Release (n = 1) ([1]; 36 hrs): 99%
Average % Olanzapine Release (n = 3) ([2]; 0.25 hr): 27%
Average % Olanzapine Release (n = 3) ([2]; 0.5 hr): 39%
Average % Olanzapine Release (n = 3) ([2]; 0.75 hr): 46%
Average % Olanzapine Release (n = 3) ([2]; 1 hr): 52%
Average % Olanzapine Release (n = 3) ([2]; 2 hrs): 62%
Average % Olanzapine Release (n = 3) ([2]; 4 hrs): 73%
Average % Olanzapine Release (n = 3) ([2]; 6 hrs): 77%
Average % Olanzapine Release (n = 3) ([2]; 24 hrs): 83%

Cc1cc2c(s1)Nc1ccccc1N=C2N1CCN(C)CC1.O.O.O=C(O)c1cc2ccccc2c(Cc2c(O)c(C(=O)O)cc3ccccc23)c1O [Olanzapine Pamoate Dihydrate, 2-methyl-4-(4-methyl-1-piperazinyl)-10H-thieno[2,3-b][1,5]benzodiazepine pamoate dihydrate]
Solubility in aqueous solution compared with olanzapine pamoate monohydrate [3]: substantially less soluble in aqueous solution than olanzapine pamoate monohydrate
% Olanzapine Release (n = 1) ([1]; 24 hrs): 95%
% Olanzapine Release (n = 1) ([1]; 36 hrs): 97%
Average % Olanzapine Release (n = 3) ([2]; 0.25 hr): 19%
Average % Olanzapine Release (n = 3) ([2]; 0.5 hr): 26%
Average % Olanzapine Release (n = 3) ([2]; 0.75 hr): 30%
Average % Olanzapine Release (n = 3) ([2]; 1 hr): 33%
Average % Olanzapine Release (n = 3) ([2]; 2 hrs): 40%
Average % Olanzapine Release (n = 3) ([2]; 4 hrs): 45%
Average % Olanzapine Release (n = 3) ([2]; 6 hrs): 47%
Average % Olanzapine Release (n = 3) ([2]; 24 hrs): 59%
Release rate of olanzapine compared with olanzapine pamoate monohydrate ([2]; aqueous conditions of Table 3, 50 rpm): substantially lower release rate of olanzapine than the olanzapine pamoate monohydrate
